From patent publication EP0411494A2, “Ergoline derivatives having dopaminergic activity” (priority 1989, dated 1991) come the findings set out here.

In assay [1] the test system is Spontaneously hypertensive rats (SHR). The experiment in a line: Antihypertensive activity on spontaneously hypertensive rats (SHR). The assay is classed as in vivo, rat. As to conditions: for Mean arterial pressure % reduction: SHR. The source says: All the compounds of formula (I) have antihypertensive activity on Spontaneously hypertensive rats (SHR), as clearly shown by the results reported in the following Table III.

Assay [2] concerns isolated uterus of female rat. As to the kind of experiment: Antiserotonin activity in vitro on isolated uterus of female rat. As to conditions: for ED₅₀: antiserotonin activity, isolated uterus of female rat. The source says: All the compounds of the invention have a marked antiserotonin activity in vitro test on isolated uterus of female rat.
Assay [3] relates to rat seminal vesicle. As to the kind of experiment: Adrenolytic activity in the rat seminal vesicle test in vitro. The source says: Most of the compounds of formula (I) have a marked adrenolytic activity in the rat seminal vesicle test in vitro.
Assay [4] concerns guinea pig platelet. As to the kind of experiment: In vitro guinea pig platelet aggregation induced by ADP. The assay is classed as cell-based. To be noted: guinea pig platelets.
Assay [5] deals with mouse. As to the kind of experiment: Locomotor activity in the mouse. It is filed as in vivo.
For assay [6], the system named is reserpinized rat. The experiment in a line: Antihyperprolactinemic activity in the reserpinized rat. It is filed as in vivo. As to conditions: for Plasmatic prolactin % reduction: reserpinized rat.
The subject of assay [7] is rat. The experiment in a line: Stereotypy test in the rat. The assay is classed as in vivo. To be noted: dose 10 mg/kg i.p.
Setting [8] is: After 1 hour, dose 0.25 mg/kg os.
[9] abbreviates: After 2 hours, dose 0.50 mg/kg os.

As usually defined, the % inhibition is the relative decrease from the control value, in per cent. A high value points to a response far below the control. With `CN(C[C@@H]1C=C2c3cccc4[nH]cc(c34)C[C@H]2N(C)C1)C1CC1` [P 1427, N-methyl-N-cyclopropyl-9,10-didehydro-6-methylergoline-8β-methanamine], the “Mean arterial pressure % reduction” value in assay [1] (dose = 1 mg/kg i.p.) came out at 35.6%; in assay [1] (dose = 3 mg/kg i.p.), 32.4%. The “hypotensive / antihypertensive activity” value in assay [1] (result in words) was “high”. For the same compound, the ED₅₀ in assay [2] is 0.004 µg/mL; in assay [3], 0.70 µg/mL. Moreover, in assay [2] (result in words), the antiserotonin activity entry is reported as “high”. Besides, the “Platelet aggregation % reduction” value in assay [4] (Dose 40 mcg/ml) was 25%. In addition, the “% inhibition” value in assay [5] (dose 20 mg/kg i.p.) was found to be 92.7%. For the same compound, the “Plasmatic prolactin % reduction” value in assay [6] (setting [8]) is 67.2%; in assay [6] (setting [9]), 86.6%. Besides, the antihyperprolactinemic activity entry in assay [6] (result in words) is reported as “interesting”.
α-Bromocryptine [reference compound] returned an ED₅₀ in assay [2] of 0.470 µg/mL. The “Platelet aggregation % reduction” value in assay [4] (Dose 80 mcg/ml) was determined as 25%. The Mean score in assay [7] is 2.25. Also, in assay [5] (dose 10 mg/kg i.p.), the “% inhibition” value is reported as 78.7%. Moreover, the “Plasmatic prolactin % reduction” value in assay [6] (setting [8]) is given as 78.2%; in assay [6] (setting [9]), 80.9%.
